According to publication PMC6277767, “Broad and Region-Specific Impacts of the Synthetic Cannabinoid CP 55,940 in Adolescent and Adult Female Mouse Brains” (Frontiers in Molecular Neuroscience, 2018):

Test system: CD1 female mouse brain lipidome
Assay: Brain-region lipid levels (HPLC/MS/MS lipidomics) 2 h after single i.p. 3 mg/kg CP 55,940 vs vehicle
Type: in vivo
Design: N-arachidonoyl phenylalanine level, Mean / N-stearoyl tryptophan level, Mean / N-stearoyl proline level, Mean / N-stearoyl leucine level, Mean / N-stearoyl phenylalanine level, Mean / N-stearoyl serine level, Mean / N-stearoyl methionine level, Mean: unit: moles per gram
Experimental: The Bloomington Institutional Animal Care and Use Committee of Indiana University reviewed and approved the animal procedures. Female mice from the CD1 strain were utilized to match our study examining THC’s effects on the brain lipidome ([Leishman et al., 2018]). Mice were given a single i.p. injection of either 3 mg/kg CP or 1:1:18 cremophor:ethanol:saline vehicle (please refer to the section “3 mg/kg CP Is Relevant for Synthetic Cannabinoid Abuse and Has Stronger Effects on the Female Mouse Brain Lipidome During Adolescence” for a justification of dose and use of female mice). Three different age groups were given injections: PND 35 and PND 50 adolescents, and adult mice (PND 113). At least eight mice in each age group received CP and at least eight received vehicle. Matching the THC study time course ([Leishman et al., 2018]), mice were sacrificed via rapid decapitation 2 h after injection. Brains were immediately removed and flash-frozen in liquid nitrogen, and then stored at -80°C until dissections were performed. Brains were dissected on an ice-cold dissection plate into the following regions: STR, HIPP, CER, THAL, CTX, HYP, MID, and STEM. These abbreviations for these brain areas will be used exclusively when discussing the results generated by these specific dissections. Each dissected area was immediately placed in liquid nitrogen and then stored at -80°C until used for lipid extraction.
Tissue extracts were performed as previously described ([Bradshaw et al., 2006]; [Stuart et al., 2013]; [Raboune et al., 2014]; [Leishman et al., 2016a],[b], [2017], [2018]). First, samples were shock frozen in liquid nitrogen, weighed, and transferred to a centrifuge tube. The mass of the largest sample was multiplied by 50 to determine how many milliliters of HPLC-grade methanol (Fisher, Fair Lawn, NJ, United States) to add. Then, samples were spiked with 500 pmol deuterium-labeled NAGly (d8NAGly; Cayman Chemical, Ann Arbor, MI, United States). Samples were placed on ice in darkness for 2 h then individually homogenized and centrifuged at 19,000 × g for 20 min at 20°C. Supernatants were diluted with HPLC water (purified in house) to make a solution of 75% water, 25% supernatant. Lipids were partially purified on C18 solid phase extraction columns (Agilent, Palo Alto, CA, United States). A series of four elutions with 1.5 mL of 60%, 75%, 85%, and 100% methanol were collected ([Stuart et al., 2013]; [Leishman et al., 2016a],[b], [2018]).
As previously described ([Bradshaw et al., 2006]; [Tan et al., 2006]; [Smoum et al., 2010]; [Stuart et al., 2013]; [Tortoriello et al., 2013]; [Raboune et al., 2014]; [Leishman et al., 2016a],[b], [2017], [2018]), samples were analyzed using an Applied Biosystems API 3000 triple quadrupole mass spectrometer with electrospray ionization (Foster City, CA, United States). Using an Agilent XDB-C18 reversed phase analytical column and optimized mobile phase gradients, 20 μL from each elution were chromatographed. Two Shimadzu 10ADvp pumps (Columbia, MD, United States) provided the pressure for gradient elution. Mobile phase A: 20% methanol, 80% water (v/v) and 1 mM ammonium acetate (Sigma, St. Louis, MO, United States). Mobile phase B: 100% methanol, 1 mM ammonium acetate. Every method run began with 0% mobile phase B, reached 100% mobile phase B flowing at 0.2 mL/min, and gradually returned to 0% mobile phase B.
This screening library will be referred to as the lipidome when discussing data from this study. HPLC/MS/MS data were analyzed using Analyst software (Applied Biosystems) ([Bradshaw et al., 2006]; [Tan et al., 2006]; [Stuart et al., 2013]; [Tortoriello et al., 2013]; [Raboune et al., 2014]; [Leishman et al., 2016a],[b], [2017], [2018]). Chromatograms (Supplementary Figure 3) were generated by determining the retention time of analytes from the analytical column with a [M-1] or [M+1] parent peak and a fragmentation peak corresponding to the programmed values. […]

[1] = cerebellum, PND 35, 3 mg/kg CP 55,940
[2] = cerebellum, PND35 WT female mice, 3mg/kg CP 55,940
[3] = cortex, PND 50, 3 mg/kg CP 55,940

CCCCCCC(C)(C)c1ccc([C@@H]2C[C@H](O)CC[C@H]2CCCO)c(O)c1 [CP 55,940]
N-oleoyl phenylalanine: Magnitude (x Veh level) [1]: 1.14 x Veh level
N-palmitoyl leucine: Direction (relative to Veh) [1]: ↑
N-palmitoyl leucine: Magnitude (x Veh level) [1]: 1.52 x Veh level
N-palmitoyl phenylalanine: Direction (relative to Veh) [1]: ↑
N-palmitoyl phenylalanine: Magnitude (x Veh level) [1]: 1.43 x Veh level
N-palmitoyl proline: Direction (relative to Veh) [1]: ↓
N-palmitoyl proline: Magnitude (x Veh level) [1]: 0.87 x Veh level
N-palmitoyl serine: Direction (relative to Veh) [1]: ↓
N-palmitoyl serine: Magnitude (x Veh level) [1]: 0.81 x Veh level
N-palmitoyl tyrosine: Direction (relative to Veh) [1]: ↑
N-palmitoyl tyrosine: Magnitude (x Veh level) [1]: 1.19 x Veh level
N-palmitoyl valine: Direction (relative to Veh) [1]: ↑
N-palmitoyl valine: Magnitude (x Veh level) [1]: 1.70 x Veh level
2-arachidonoyl glycerol level, Mean [2]: 2.68E-10
2-linoleoyl glycerol level, Mean [2]: 1.01E-10
2-oleoyl glycerol level, Mean [2]: 7.55E-10
2-palmitoyl glycerol level, Mean [2]: 3.01E-10
6-ketoPGF1α level, Mean [2]: 8.74E-12
11-OH-THC level, Mean [2]: BDL
11-nor-9-carboxyTHC level, Mean [2]: BDL
Arachidonic acid level, Mean [2]: 1.26E-09
Cannabidiol level, Mean [2]: BDL
Linoleic acid level, Mean [2]: 4.27E-10
N- stearoyl valine level, Mean [2]: PISSR
N-arachidonoyl GABA level, Mean [2]: 9.02E-12
N-arachidonoyl alanine level, Mean [2]: 5.29E-12
N-arachidonoyl dopamine level, Mean [2]: BDL
N-arachidonoyl ethanolamine level, Mean [2]: 1.17E-11
N-arachidonoyl glycine level, Mean [2]: 2.55E-11
N-arachidonoyl methionine level, Mean [2]: 8.56E-13
N-arachidonoyl phenylalanine level, Mean [2]: 1.22E-12
N-arachidonoyl proline level, Mean [2]: BDL
N-arachidonoyl serine level, Mean [2]: 5.34E-12
N-arachidonoyl taurine level, Mean [2]: 7.17E-11
N-arachidonoyl tryptophan level, Mean [2]: PISSR
N-arachidonoyl tyrosine level, Mean [2]: 8.32E-13
N-docosahexaenoyl GABA level, Mean [2]: 2.27E-12
N-docosahexaenoyl alanine level, Mean [2]: 3.11E-12
N-docosahexaenoyl ethanolamine level, Mean [2]: 2.05E-11
N-docosahexaenoyl glycine level, Mean [2]: 1.34E-11
N-docosahexaenoyl leucine level, Mean [2]: 7.43E-13
N-docosahexaenoyl methionine level, Mean [2]: 5.43E-13
N-docosahexaenoyl phenylalanine level, Mean [2]: 1.05E-12
N-docosahexaenoyl proline level, Mean [2]: BDL
N-docosahexaenoyl serine level, Mean [2]: 2.79E-11
N-docosahexaenoyl tryptophan level, Mean [2]: PISSR
N-docosahexaenoyl tyrosine level, Mean [2]: 1.57E-12
N-docosahexaenoyl valine level, Mean [2]: BDL
N-linoleoyl GABA level, Mean [2]: 7.16E-13
N-linoleoyl alanine level, Mean [2]: 1.26E-12
N-linoleoyl ethanolamine level, Mean [2]: 2.95E-11
N-linoleoyl glycine level, Mean [2]: 3.27E-12
N-linoleoyl leucine level, Mean [2]: 3.65E-13
N-linoleoyl methionine level, Mean [2]: PISSR
N-linoleoyl phenylalanine level, Mean [2]: 2.56E-13
N-linoleoyl proline level, Mean [2]: BDL
N-linoleoyl serine level, Mean [2]: 4.55E-11
N-linoleoyl tryptophan level, Mean [2]: PISSR
N-linoleoyl tyrosine level, Mean [2]: PISSR
N-linoleoyl valine level, Mean [2]: BDL
N-nervonoyl valine level, Mean [2]: BDL
N-oleoyl GABA level, Mean [2]: 3.82E-12
N-oleoyl alanine level, Mean [2]: 6.55E-12
N-oleoyl dopamine level, Mean [2]: BDL
N-oleoyl ethanolamine level, Mean [2]: 7.98E-11
N-oleoyl glycine level, Mean [2]: 1.52E-11
N-oleoyl leucine level, Mean [2]: 1.49E-12
N-oleoyl methionine level, Mean [2]: 1.2E-12
N-oleoyl phenylalanine level, Mean [2]: 1.43E-12
N-oleoyl proline level, Mean [2]: 3.42E-13
N-oleoyl serine level, Mean [2]: 2.53E-10
N-oleoyl tryptophan level, Mean [2]: 1.48E-13
N-oleoyl tyrosine level, Mean [2]: 7.24E-13
N-oleoyl valine level, Mean [2]: PISSR
N-palmitoyl GABA level, Mean [2]: 7.17E-12
N-palmitoyl alanine level, Mean [2]: 7.87E-12
N-palmitoyl ethanolamine level, Mean [2]: 3.88E-11
N-palmitoyl glycine level, Mean [2]: 2.65E-11
N-palmitoyl leucine level, Mean [2]: 2.75E-12
N-palmitoyl methionine level, Mean [2]: 1.86E-12
N-palmitoyl phenylalanine level, Mean [2]: 2.82E-12
N-palmitoyl proline level, Mean [2]: 7E-13
N-palmitoyl serine level, Mean [2]: 5.23E-11
N-palmitoyl tryptophan level, Mean [2]: 3.12E-13
N-palmitoyl tyrosine level, Mean [2]: 1.58E-12
N-palmitoyl valine level, Mean [2]: 1.73E-13
N-stearoyl GABA level, Mean [2]: 5.88E-12
N-stearoyl alanine level, Mean [2]: 1.31E-11
N-stearoyl ethanolamine level, Mean [2]: 1.11E-11
N-stearoyl glycine level, Mean [2]: 1.37E-11
N-stearoyl leucine level, Mean [2]: 9.56E-13
N-stearoyl methionine level, Mean [2]: 1.59E-12
N-stearoyl phenylalanine level, Mean [2]: 1.92E-12
N-stearoyl proline level, Mean [2]: 3.97E-13
N-stearoyl serine level, Mean [2]: 2.93E-11
N-stearoyl tryptophan level, Mean [2]: 6.79E-13
N-stearoyl tyrosine level, Mean [2]: 8.44E-14
Oleic acid level, Mean [2]: 1.03E-09
PGE2 level, Mean [2]: 4.01E-10
PhosphoLEA level, Mean [2]: 1.04E-11
THC level, Mean [2]: BDL
2-linoleoyl glycerol Direction (relative to Veh) [3]: ↓
2-oleoyl glycerol, Direction (relative to Veh) [3]: ↓
